From patent publication US10017459B2, “β-substituted β-amino acids and analogs as chemotherapeutic agents and uses thereof” (Quadriga Biosciences, Inc., priority 2015, dated 2018)
pIC50: −log10 of the molar value.

Tests used:
[1] = target: T1, hLAT1 (Homo sapiens, UniProt Q01650); test: LAT1 uptake inhibition assay, radiolabeled competition uptake with [3H]-Gabapentin; format: cell-based
T1 construct: expressed in transfected cells; host or cells: LLCPK cells, tetracycline/doxycycline-inducible, boosted with sodium butyrate

[2] = target: T2, hLAT2 (Homo sapiens, UniProt Q9UHI5); test: LAT2 uptake inhibition assay, radiolabeled competition uptake with [3H]-leucine; format: cell-based
T2 construct: expressed in transfected cells; host or cells: KB or LLCPK cells, tetracycline/doxycycline-inducible
T2 sequence (Q9UHI5 1-535): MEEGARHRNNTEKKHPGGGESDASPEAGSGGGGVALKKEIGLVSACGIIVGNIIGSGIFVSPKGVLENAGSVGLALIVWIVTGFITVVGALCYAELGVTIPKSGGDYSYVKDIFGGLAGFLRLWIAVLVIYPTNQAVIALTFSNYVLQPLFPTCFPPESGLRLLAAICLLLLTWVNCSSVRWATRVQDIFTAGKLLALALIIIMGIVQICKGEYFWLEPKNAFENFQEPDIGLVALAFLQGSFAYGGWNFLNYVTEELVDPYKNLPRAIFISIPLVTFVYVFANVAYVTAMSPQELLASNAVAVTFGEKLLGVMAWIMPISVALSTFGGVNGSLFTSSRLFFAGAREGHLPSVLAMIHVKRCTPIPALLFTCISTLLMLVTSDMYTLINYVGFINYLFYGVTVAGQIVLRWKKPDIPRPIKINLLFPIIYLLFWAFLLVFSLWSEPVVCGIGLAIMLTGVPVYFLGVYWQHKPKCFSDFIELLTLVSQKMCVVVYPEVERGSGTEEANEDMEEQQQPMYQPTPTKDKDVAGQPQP
T2 sequence (P08195 1-630 isoform P08195-1 partner): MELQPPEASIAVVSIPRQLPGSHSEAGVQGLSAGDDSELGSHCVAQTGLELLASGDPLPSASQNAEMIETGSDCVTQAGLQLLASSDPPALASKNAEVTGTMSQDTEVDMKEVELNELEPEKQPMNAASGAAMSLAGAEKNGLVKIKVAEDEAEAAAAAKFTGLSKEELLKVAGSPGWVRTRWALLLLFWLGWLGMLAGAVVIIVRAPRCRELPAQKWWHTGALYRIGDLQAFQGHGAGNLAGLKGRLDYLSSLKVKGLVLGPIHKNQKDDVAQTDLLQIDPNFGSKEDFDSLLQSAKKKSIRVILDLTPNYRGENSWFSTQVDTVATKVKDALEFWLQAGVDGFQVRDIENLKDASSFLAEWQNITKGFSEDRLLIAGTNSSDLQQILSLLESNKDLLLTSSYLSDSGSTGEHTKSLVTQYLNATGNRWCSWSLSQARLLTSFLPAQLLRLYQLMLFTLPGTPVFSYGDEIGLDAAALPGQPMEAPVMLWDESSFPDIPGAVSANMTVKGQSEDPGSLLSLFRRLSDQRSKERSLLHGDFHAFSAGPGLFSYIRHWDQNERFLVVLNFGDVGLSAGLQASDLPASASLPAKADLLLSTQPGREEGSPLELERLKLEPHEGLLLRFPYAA

[3] = system: U251; test: cells; format: cell-based; settings: Homo sapiens, U-251, read-out: IC50 (in vitro toxicity)
[4] = system: LN229; test: cells; format: cell-based; settings: Homo sapiens, LN-229, read-out: IC50 (in vitro toxicity)
[5] = system: 42MGBA; test: cells; format: cell-based; settings: read-out: IC50 (in vitro toxicity)
[6] = system: DBRTG; test: cells; format: cell-based; settings: read-out: IC50 (in vitro toxicity)
[7] = system: G55; test: cells; format: cell-based; settings: read-out: IC50 (in vitro toxicity)
[8] = system: 794; test: cells; format: cell-based; settings: read-out: IC50 (in vitro toxicity)
[9] = system: D283; test: cells; format: cell-based; settings: D283, read-out: IC50 (in vitro toxicity)
[10] = system: MDA-MB-231; test: cells; format: cell-based; settings: Homo sapiens, MDA-MB-231, read-out: IC50 (in vitro toxicity)
[11] = system: MV411; test: cells; format: cell-based; settings: Homo sapiens, MV4-11, read-out: IC50 (in vitro toxicity)
[12] = system: Raji; test: cells; format: cell-based; settings: Homo sapiens, read-out: IC50 (in vitro toxicity)
[13] = system: PC3; test: cells; format: cell-based; settings: Homo sapiens, PC-3, read-out: IC50 (in vitro toxicity)
[14] = system: KMS34; test: cells; format: cell-based; settings: KMS-34, read-out: IC50 (in vitro toxicity)
[15] = system: L363; test: cells; format: cell-based; settings: Homo sapiens, L-363, read-out: IC50 (in vitro toxicity)
[16] = system: AMO1; test: cells; format: cell-based; settings: Homo sapiens, AMO1, read-out: IC50 (in vitro toxicity)
[17] = system: U266; test: cells; format: cell-based; settings: Homo sapiens, U-266, read-out: IC50 (in vitro toxicity)
[18] = system: MM1.S; test: cells; format: cell-based; settings: Homo sapiens, read-out: IC50 (in vitro toxicity)
[19] = system: HS27A; test: cells; format: cell-based; settings: HS-27A, read-out: IC50 (in vitro toxicity)
[20] = system: RPMI8266; test: cells; format: cell-based; settings: RPMI8266, read-out: IC50 (in vitro toxicity)
[21] = system: KMS11; test: cells; format: cell-based; settings: Homo sapiens, KMS-11, read-out: IC50 (in vitro toxicity)
[22] = system: HS5; test: cells; format: cell-based; settings: HS5, read-out: IC50 (in vitro toxicity)
[23] = system: MDA-MB-231; test: Triple negative breast cancer study, IV dosing; format: in vivo, mouse; settings: IV once a week for 8 weeks
Procedure: The efficacy of compounds provided by the present disclosure was evaluated on a triple negative breast cancer xenograft model—MDA-MB-231. Human triple negative breast cancer cells were implanted into the flank of nude mice and the study was initiated after the volume of the tumors was 150 mm^3. The animals were IV dosed once a week for 8 weeks with either vehicle or 5 mg/kg of compound (5), or 20 mg/kg compound (7). The tumor volume, body weight, white blood cell count, and granulocyte count were determined during the study and 12 days after the final dose was administered.

[24] = system: LLCPK cells conditionally expressing hLAT1; test: cells; settings: 0.5 h, read-out: LC50, concentration of test compound at which the percent surviving cells was 50%
[25] = system: Human prostate cancer PC3 cells; settings: mouse, in vivo
[26] = system: B16 melanoma cells; test: In vivo tumor growth suppression, B16 efficacy model; design: species or system mouse; settings: C57BL/6 mice, IP daily for 12 days; test compound 5 mg/kg and 10 mg/kg, melphalan 2.5 mg/kg
[27] = system: LLCPK cells conditionally expressing hLAT1
[28] = system: human bone marrow cells (erythroid and myeloid progenitors); test: In vitro bone marrow toxicity, colony forming cell assays; settings: 14 days in culture, methylcellulose media
[29] = system: HCT116; test: In vitro cytotoxicity, HCT116; format: cell-based; settings: Homo sapiens, HCT-116, read-out: IC50 (in vitro toxicity)
[30] = system: MCF7; test: In vitro cytotoxicity, MCF7; format: cell-based; settings: Homo sapiens, MCF7, read-out: IC50 (in vitro toxicity)

T1 sequence (Q01650 whole entry, one chain of several): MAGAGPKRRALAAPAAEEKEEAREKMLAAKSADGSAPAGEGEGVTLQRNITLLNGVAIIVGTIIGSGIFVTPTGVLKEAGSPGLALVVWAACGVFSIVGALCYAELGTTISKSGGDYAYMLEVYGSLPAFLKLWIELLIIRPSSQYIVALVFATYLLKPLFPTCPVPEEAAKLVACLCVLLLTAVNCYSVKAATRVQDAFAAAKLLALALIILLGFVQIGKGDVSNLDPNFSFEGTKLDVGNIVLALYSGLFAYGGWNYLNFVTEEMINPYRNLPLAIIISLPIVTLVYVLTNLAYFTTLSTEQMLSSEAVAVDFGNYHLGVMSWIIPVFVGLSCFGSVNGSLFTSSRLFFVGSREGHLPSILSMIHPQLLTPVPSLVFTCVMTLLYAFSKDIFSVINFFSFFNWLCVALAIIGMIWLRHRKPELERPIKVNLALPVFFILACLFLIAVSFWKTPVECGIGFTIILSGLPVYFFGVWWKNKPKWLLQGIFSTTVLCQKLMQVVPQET

| SMILES | pIC50 [2] | pIC50 [3] | pIC50 [4] | pIC50 [5] | pIC50 [6] | pIC50 [7] | pIC50 [8] | pIC50 [9] | pIC50 [10] | pIC50 [11] | pIC50 [12] | pIC50 [13] | pIC50 [14] | pIC50 [15] | pIC50 [16] | pIC50 [17] | pIC50 [18] | pIC50 [19] | pIC50 [20] | pIC50 [21] | other results |
| --- | --- | --- | --- | --- | --- | --- | --- | --- | --- | --- | --- | --- | --- | --- | --- | --- | --- | --- | --- | --- | --- |
| COc1ccc(N(CCCl)CCCl)cc1C[C@H](N)CC(=O)O [Compound 7, (3S)-3-Amino-4-[5-[bis(2-chloroethyl)amino]-2-methoxy-phenyl]butanoic Acid] | > 4.00 | > 4.00 | > 4.00 | > 4.00 | > 4.00 | > 4.00 | > 4.00 | > 4.00 | > 4.00 | > 4.00 | > 4.00 | > 4.00 | < 4.00 | < 4.00 | < 4.00 | > 4.00 | > 4.00 | < 4.00 | < 4.00 | < 4.00 | pIC50 [1]: > 4.00; pIC50 [22]: < 4.00; body weight [23]: maintained weight; myelosuppression [23]: not dectected; tumor growth suppression ([23]; nude mice, 5 mg/kg compound (5), 20 mg/kg compound (7)): dose-dependent tumor growth suppression; CC50 [24]: < 1 µM; body weight [25]: maintained weight; myelosuppression [25]: not dectected; tumor growth suppression [25]: dose-dependent tumor growth suppression |
| N[C@@H](Cc1ccc(N(CCCl)CCCl)cc1)C(=O)O [melphalan, reference compound] | – | – | – | – | – | – | – | – | – | – | – | – | – | – | – | – | – | – | – | – | Tumor Growth (% Control), 5 days post-dosing [26]: 56 % Control; Tumor Growth (% Control), End of dosing [26]: 33 % Control; percent surviving cells in cells expressing LAT1 versus cells not expressing LAT1 (in words) [27]: about the same; toxicity to bone marrow progenitor cells (BFU-E, CFU-GM, Total CFC) [28]: more toxic to bone marrow progenitor cells than compound (5) |
| COc1ccc(N(CCCl)CCCl)c(C[C@H](N)CC(=O)O)c1 [Compound 51, (3S)-3-amino-4-[2-[bis(2-chloroethyl)amino]-5-methoxy-phenyl]butanoic acid] | > 4.00 | > 4.00 | > 4.00 | > 4.00 | > 4.00 | > 4.00 | > 4.00 | > 4.00 | > 4.00 | > 4.00 | > 4.00 | > 4.00 | > 4.00 | > 4.00 | < 4.00 | > 4.00 | > 4.00 | < 4.00 | < 4.00 | < 4.00 | pIC50 [29]: > 4.00; pIC50 [30]: > 4.00; pIC50 [22]: < 4.00; CC50 [24]: < 1 µM; body weight [25]: maintained weight; myelosuppression [25]: not dectected; tumor growth suppression [25]: dose-dependent tumor growth suppression |
